Assay results from patent US12643887B2, “Heterocyclic derivatives with cardiomyocyte proliferation activity for treatment of heart diseases” (Tongji University, priority 2019, dated 2026).

Legend:
[1] = target: T1, human CLK1 (Homo sapiens, UniProt P49759); assay: CLK1 enzyme assay (ADP-Glo); format: biochemical; conditions: ADP-Glo, ATP 10 μM; read-out: CLK1 IC50
T1 construct: Recombinant human CLK1 (129-end); GST (N); purchased SignalChem C57-11G; host or cells: Sf9 insect cells
Experimental: The ability of compounds to inhibit human CLK1 kinase activities was determined using a commercially available ADP-Glo™ Kinase Assay kit (Promega, Cat #V9102) according to the manufacturer's protocol.
(§1) Recombinant human CLK1 (129-end) (expressed in Sf9 insect cells with an N-terminal GST tag) was purchased from SignalChem (Cat #C57-11G). Recombinant full length human MBP (expressed in E. Coli cells with an N-terminal GST tag.) was purchased from SignalChem (Cat #M42-54G). This assay, run in a 384-well plate format, is a generic method for measuring kinase activities using an ADP-Glo Kinase Assay Kit. The basic assay procedure involves two steps: (1) Enzymatic step: inhibitors are incubated with the kinase and then ATP (included in the ADP-Glo Kinase Assay Kit) and the MBP protein are added to start the enzymatic reaction; (2) Detection step: after the kinase reaction, first ADP-Glo™ Reagent is added to terminate the kinase reaction and deplete the remaining ATP. Second, the Kinase Detection Reagent is added to simultaneously convert ADP to ATP and allow the newly synthesized ATP to be measured using a luciferase/luciferin reaction. The light generated is measured using a luminometer.
(§2) Briefly, CLK1 (16 nM) in the enzymatic buffer solutions (40 mM Tris, pH 7.5, 20 mM MgCl2, 0.1 mg/ml BSA, 50 μM DTT) were mixed with various concentrations of inhibitors (dissolved in 100% DMSO). These solutions were incubated for 30 minutes at 25° C., and subsequently a mixture of substrate peptide and ATP was added with the final peptide and ATP concentrations at 2 μM and 10 μM, respectively. The final reaction mixture of enzyme-substrate-ATP-compound was incubated for 60 minutes at 25° C.
Afterwards ADP-Glo™ Reagent was added and the mixture was incubated at 25° C. for 60 minutes. Then Kinase Detection Reagent was added and the final mixture was incubated at 25° C. for 60 minutes. The luminescence signal of the final solution was measured on an Envision instrument (PerkinElmer). The percent (%) inhibition at each concentration of a compound is calculated relative to the luminescence signal in the Max and Min control wells contained within each assay plate. […] The concentrations and percent inhibition values for a test compound are plotted and the concentration of the compound required to achieve 50% inhibition (IC50) is determined with a four-parameter logistic dose response equation.

[2] = target: T2, human HIPK1 (Homo sapiens, UniProt Q86Z02); assay: HIPK1 enzyme assay (ADP-Glo); format: biochemical; conditions: ADP-Glo, ATP 5 μM; read-out: HIPK1 IC50
T2 construct: Recombinant human HIPK1 (156-555); GST (N); purchased SignalChem H03-11G; host or cells: Sf9 insect cells
Experimental: The ability of compounds to inhibit human HIPK1 kinase activities was determined using a commercially available ADP-Glo™ Kinase Assay kit (Promega, Cat #V9102) according to the manufacturer's protocol.
as §1, with “HIPK1 (156-555)” for “CLK1 (129-end)”, “#H03-11G).” for “#C57-11G).”, “tag)” for “tag.)”
as §2, with “Briefly, HIPK1 (4” for “Briefly, CLK1 (16”, “at 0.05 mg/ml” for “at 2 μM”, “and 5” for “and 10”, “for 90” for “for 60”
Afterwards ADP-Glo™ Reagent was added and the mixture was incubated at 25° C. for 60 minutes. Then Kinase Detection Reagent was added, and the final mixture was incubated at 25° C. for 60 minutes. The luminescence signal of the final solution was measured on an Envision instrument (PerkinElmer). The percent (%) inhibition at each concentration of a compound is calculated relative to the luminescence signal in the Max and Min control wells contained within each assay plate. […] The concentrations and percent inhibition values for a test compound are plotted and the concentration of the compound required to achieve 50% inhibition (IC50) is determined with a four-parameter logistic dose response equation.

T1 sequence (P49759 129-484 limits assumed): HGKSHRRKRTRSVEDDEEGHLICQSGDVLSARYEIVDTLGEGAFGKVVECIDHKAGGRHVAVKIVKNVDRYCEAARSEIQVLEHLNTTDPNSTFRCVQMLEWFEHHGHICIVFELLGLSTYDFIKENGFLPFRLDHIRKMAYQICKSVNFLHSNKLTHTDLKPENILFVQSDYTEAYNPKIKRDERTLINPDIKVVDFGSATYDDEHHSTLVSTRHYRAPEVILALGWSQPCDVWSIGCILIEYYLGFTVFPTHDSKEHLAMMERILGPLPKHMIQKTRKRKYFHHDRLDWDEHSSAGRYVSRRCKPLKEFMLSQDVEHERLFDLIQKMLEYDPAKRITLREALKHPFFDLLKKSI
T2 sequence (Q86Z02 156-555): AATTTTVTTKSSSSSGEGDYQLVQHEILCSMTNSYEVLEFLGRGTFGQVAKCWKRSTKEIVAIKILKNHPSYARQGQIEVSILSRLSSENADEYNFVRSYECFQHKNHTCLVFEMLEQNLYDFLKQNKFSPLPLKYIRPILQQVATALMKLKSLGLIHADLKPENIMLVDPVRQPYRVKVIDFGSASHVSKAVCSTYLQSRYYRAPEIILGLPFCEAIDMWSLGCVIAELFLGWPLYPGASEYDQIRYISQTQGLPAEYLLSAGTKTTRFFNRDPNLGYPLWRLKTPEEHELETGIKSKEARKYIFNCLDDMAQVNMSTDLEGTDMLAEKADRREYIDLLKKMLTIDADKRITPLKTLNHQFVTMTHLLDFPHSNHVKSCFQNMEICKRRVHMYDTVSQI

Structure (SMILES) | IC50 [1] | IC50 [2]
Cn1cnc2ccc(/C=C3\N=C(Nc4ccc5ncsc5c4)NC3=O)cc21 [Example 75, (Z)-2-(benzo[d]thiazol-6-ylamino)-5-((1-methyl-1H-benzo[d]imidazol-6-yl)methylene)-3,5-dihydro-4H-imidazol-4-one] | < 0.1 µM | < 0.1 µM
NC(=O)CCN(C1=N/C(=C\c2ccc3c(c2)OCO3)C(=O)N1)c1ccccc1 [Example 36, (Z)-3-((4-(benzo[d][1,3]dioxol-5-ylmethylene)-5-oxo-4,5-dihydro-1H-imidazol-2-yl)(phenyl)amino)propanamide] | 0.1 to 1 µM | > 10 µM
O=C1NC(Nc2ccc3ncsc3c2)=N/C1=C\c1ccc2occc2c1 [Example 59, (Z)-2-(benzo[d]thiazol-6-ylamino)-5-(benzofuran-5-ylmethylene)-3,5-dihydro-4H-imidazol-4-one] | > 10 µM | > 10 µM
Cn1ncc2ccc(/C=C3\N=C(Nc4ccccc4)NC3=O)cc21 [Example 79, 5-((1-methyl-1H-indazol-6-yl)methylene)-2-(phenylamino)-3,5-dihydro-4H-imidazol-4-one] | > 10 µM | > 10 µM
O=C1NC(NCc2ccccc2)=N/C1=C\c1ccc2ncsc2c1 [Example 31, (Z)-5-(benzo[d]thiazol-6-ylmethylene)-2-(benzylamino)-3,5-dihydro-4H-imidazol-4-one] | – | 0.1 to 1 µM
CN(CC1CC1)C1=N/C(=C\c2ccc3c(c2)OCCO3)C(=O)N1 [Example 19, (Z)-2-((cyclopropylmethyl)(methyl)amino)-5-((2,3-dihydrobenzo[b][1,4]dioxin-6-yl)methylene)-3,5-di hydro-4H-imidazol-4-one] | 1 to 10 µM | > 10 µM
O=C1NC(N(CC2CC2)c2ccccc2)=N/C1=C\c1ccc2c(c1)OCO2 [Example 10, (Z)-5-(benzo[d][1,3]dioxol-5-ylmethylene)-2-((cyclopropylmethyl)(phenyl)amino)-3,5-dihydro-4H-imidazol-4-one] | 0.1 to 1 µM | > 10 µM
CN(CCN1CCOCC1)C1=N/C(=C\c2ccc3ncsc3c2)C(=O)N1 [Example 32, (Z)-5-(benzo[d]thiazol-6-ylmethylene)-2-(methyl(2-morpholinoethyl)amino)-3,5-dihydro-4H-imidazol-4-one] | 0.1 to 1 µM | > 10 µM
CN(C1=N/C(=C\c2ccc3c(c2)OCO3)C(=O)N1)c1ccccc1 [Example 1, (Z)-5-(benzo[d][1,3]dioxol-5-ylmethylene)-2-(methyl(phenyl)amino)-3,5-dihydro-4H-imidazol-4-one] | 0.1 to 1 µM | > 10 µM

Further lines, results first:

IC50 [1] | IC50 [2] | Structure (SMILES)
– | 1 to 10 µM | O=C1NC(NCC2CC2)=N/C1=C\c1ccc2ncsc2c1 [Example 34, (Z)-5-(benzo[d]thiazol-6-ylmethylene)-2-((cyclopropylmethyl)amino)-3,5-dihydro-4H-imidazol-4-one]
1 to 10 µM | > 10 µM | CN(C1=N/C(=C\c2ccc3ncsc3c2)C(=O)N1)c1ccc([N+](=O)[O-])cc1 [Example 43, (Z)-5-(benzo[d]thiazol-6-ylmethylene)-2-(methyl(4-nitrophenyl)amino)-3,5-dihydro-4H-imidazol-4-one]
0.1 to 1 µM | 1 to 10 µM | O=C1NC(N(CCO)c2ccccc2)=N/C1=C\c1ccc2c(c1)OCO2 [Example 13, (Z)-5-(benzo[d][1,3]dioxol-5-ylmethylene)-2-((2-hydroxyethyl)(phenyl)amino)-3,5-dihydro-4H-imidazol-4-one]
> 10 µM | > 10 µM | Cn1ncc2cc(/C=C3\N=C(Nc4ccc5ncsc5c4)NC3=O)ccc21 [Example 78, (Z)-2-(benzo[d]thiazol-6-ylamino)-5-((1-methyl-1H-indazol-5-yl)methylene)-3,5-dihydro-4H-imidazol-4-one]
> 10 µM | > 10 µM | O=C1NC(Nc2ccc3ncsc3c2)=N/C1=C\c1ccc2[nH]ccc2c1 [Example 58, (Z)-5-((1H-indol-5-yl)methylene)-2-(benzo[d]thiazol-6-ylamino)-3,5-dihydro-4H-imidazol-4-one]
